Results as given in ChEMBL document CHEMBL5260810, “Inhibition of bromodomain-containing protein 9 for the prevention of epigenetically-defined drug resistance” (Bioorg Med Chem Lett, 2017).

How the values were obtained:
Format in all cases: functional, cell-based
NALM-6 = assay: Cytotoxicity against human NALM-6 cells measured after 8 days; details: NALM-6, 192 h
[1] = Cytotoxicity against human MOLP8 cells measured after 8 days; details: MOLP-8, 192 h
[2] = Cytotoxicity against human KHM-1B cells measured after 8 days; details: 192 h
OCI-AML2 = assay: Cytotoxicity against human OCI-AML2 cells measured after 8 days; details: OCI-AML2, 192 h
A 172 = assay: Cytotoxicity against human A-172 cells measured after 8 days; details: A 172, 192 h
SCLC-21H = assay: Cytotoxicity against human SCLC-21H cells measured after 8 days; details: 192 h
[3] = Cytotoxicity against human GOTO.P3 cells measured after 8 days; details: GOTO.P3, 192 h
MPC-11 = assay: Cytotoxicity against mouse MPC-11 cells measured after 8 days; details: MPC-11, 192 h
Rec1 = assay: Cytotoxicity against human REC1 cells measured after 8 days; details: Rec1, 192 h
[4] = Cytotoxicity against human KP-N-SI9s cells measured after 8 days; details: 192 h
SIMA = assay: Cytotoxicity against human SIMA cells measured after 8 days; details: 192 h
HN = assay: Cytotoxicity against human HN cells measured after 8 days; details: 192 h
[5] = Cytotoxicity against human COLO-704 cells measured after 8 days; details: COLO 704, 192 h
[6] = Cytotoxicity against human COV362 cells measured after 8 days; details: COV362, 192 h
[7] = Cytotoxicity against human COV362.4 cells measured after 8 days; details: COV362.4, 192 h
[8] = Cytotoxicity against mouse 4T1-Luc cells measured after 8 days; details: 192 h
BT-474 = assay: Cytotoxicity against human BT-474 cells measured after 8 days; details: BT-474, 192 h
[9] = Cytotoxicity against human HCC1159 cells measured after 8 days; details: HCC1159, 192 h
[10] = Cytotoxicity against human HCC850 cells measured after 8 days; details: HCC850, 192 h
[11] = Cytotoxicity against human ONCO-DG-1 cells measured after 8 days; details: ONCO-DG-1, 192 h
OVCAR-5 = assay: Cytotoxicity against human OVCAR-5 cells measured after 8 days; details: OVCAR-5, 192 h
MCF-10A [12] = assay: Cytotoxicity against human MCF-10A AKT2-/- cells measured after 8 days; details: 192 h
MCF-10A [13] = assay: Cytotoxicity against human MCF-10A PTEN-/- cells measured after 8 days; details: 192 h
SUM149PT = assay: Cytotoxicity against human SUM149PT cells measured after 8 days; details: 192 h
TYK-nu = assay: Cytotoxicity against human TYK-nu cells measured after 8 days; details: 192 h
CAPAN-1 = assay: Cytotoxicity against human CAPAN-1 cells measured after 8 days; details: CAPAN-1, 192 h
[14] = Cytotoxicity against human SBC-7 cells measured after 8 days; details: SBC-7, 192 h
[15] = Cytotoxicity against human SKG-IIIb cells measured after 8 days; details: 192 h
[16] = Cytotoxicity against human KLM-1 cells measured after 8 days; details: KLM1, 192 h
[17] = Cytotoxicity against human KR7251 cells measured after 8 days; details: KR7251, 192 h
[18] = Cytotoxicity against human KR7414 cells measured after 8 days; details: KR7414, 192 h
PANC-03-27 = assay: Cytotoxicity against human Panc 03.27 cells measured after 8 days; details: PANC-03-27, 192 h
[19] = Cytotoxicity against human 51BLim 10 cells measured after 8 days; details: 51BLim 10, 192 h
[20] = Cytotoxicity against human CL-34 cells measured after 8 days; details: CL-34, 192 h
[21] = Cytotoxicity against human PK-1 cells measured after 8 days; details: PK-1, 192 h
[22] = Cytotoxicity against human TCC-Pan2 cells measured after 8 days; details: TCC-Pan2, 192 h
[23] = Cytotoxicity against human SW403 cells measured after 8 days; details: SW-403, 192 h
SJRH30 = assay: Cytotoxicity against human SJRH30 cells measured after 8 days; details: SJRH30, 192 h
B16-F1 = assay: Cytotoxicity against mouse B16-F1 cells measured after 8 days; details: B16-F1, 192 h
CHL-1 = assay: Cytotoxicity against human CHL-1 cells measured after 8 days; details: CHL-1, 192 h
T84 = assay: Cytotoxicity against human T84 cells measured after 8 days; details: T84, 192 h
[24] = Cytotoxicity against human COLO 818 cells measured after 8 days; details: COLO 818, 192 h
[25] = Cytotoxicity against human T.T cells measured after 8 days; details: TT, 192 h
CAKI-2 = assay: Cytotoxicity against human CAKI-2 cells measured after 8 days; details: CAKI-2, 192 h
CAL-54 = assay: Cytotoxicity against human CAL-54 cells measured after 8 days; details: CAL-54, 192 h
[26] = Cytotoxicity against human KMRC-20 cells measured after 8 days; details: KMRC-20, 192 h
TK-10 = assay: Cytotoxicity against human TK-10 cells measured after 8 days; details: TK-10, 192 h
[27] = Cytotoxicity against human VMRC-RCW cells measured after 8 days; details: 192 h
[28] = Cytotoxicity against human MMAc cells measured after 8 days; details: 192 h
[29] = Cytotoxicity against human UCSD-242L cells measured after 8 days; details: 192 h
SNU-398 = assay: Cytotoxicity against human SNU-398 cells measured after 8 days; details: SNU-398, 192 h
SNU-423 = assay: Cytotoxicity against human SNU-423 cells measured after 8 days; details: SNU-423, 192 h
MKN-74 = assay: Cytotoxicity against human MKN-74 cells measured after 8 days; details: MKN-74, 192 h
COR-L47 = assay: Cytotoxicity against human COR-L47 cells measured after 8 days; details: COR-L47, 192 h
DMS-273 = assay: Cytotoxicity against human DMS-273 cells measured after 8 days; details: DMS-273, 192 h
BCPAP = assay: Cytotoxicity against human BCPAP cells measured after 8 days; details: 192 h
[30] = Cytotoxicity against human UM-UC-1 cells measured after 8 days; details: UM-UC-1, 192 h
UMUC3 = assay: Cytotoxicity against human UMUC3 cells measured after 8 days; details: UMUC3, 192 h
HT-1080 = assay: Cytotoxicity against human HT-1080 cells measured after 8 days; details: HT-1080, 192 h
[31] = Cytotoxicity against human HCC597 cells measured after 8 days; details: HCC597, 192 h
HEC-1-A = assay: Cytotoxicity against human HEC-1-A cells measured after 8 days; details: 192 h
[32] = Cytotoxicity against human HEC-265 cells measured after 8 days; details: HEC-265, 192 h
MES-SA = assay: Cytotoxicity against human MES-SA cells measured after 8 days; details: 192 h

Compound: C/C=C/Cn1cc(-c2ccc(C(C)(C)O)cc2OC)c2cc[nH]c2c1=O
- IC50 (NALM-6): 20 µM
- IC50 [1]: 20 µM
- IC50 [2]: 20 µM
- IC50 (OCI-AML2): 14.2 µM
- IC50 (A 172): 20 µM
- IC50 (SCLC-21H): 20 µM
- IC50 [3]: 20 µM
- IC50 (MPC-11): 16.5 µM
- IC50 (Rec1): 16.4 µM
- IC50 [4]: 20 µM
- IC50 (SIMA): 20 µM
- IC50 (HN): 20 µM
- IC50 [5]: 20 µM
- IC50 [6]: 20 µM
- IC50 [7]: 20 µM
- IC50 [8]: 20 µM
- IC50 (BT-474): 20 µM
- IC50 [9]: 20 µM
- IC50 [10]: 20 µM
- IC50 [11]: 20 µM
- IC50 (OVCAR-5): 20 µM
- IC50 (MCF-10A [12]): 14.2 µM
- IC50 (MCF-10A [13]): 20 µM
- IC50 (SUM149PT): 20 µM
- IC50 (TYK-nu): 20 µM
- IC50 (CAPAN-1): 20 µM
- IC50 [14]: 20 µM
- IC50 [15]: 20 µM
- IC50 [16]: 20 µM
- IC50 [17]: 20 µM
- IC50 [18]: 20 µM
- IC50 (PANC-03-27): 20 µM
- IC50 [19]: 20 µM
- IC50 [20]: 20 µM
- IC50 [21]: 20 µM
- IC50 [22]: 20 µM
- IC50 [23]: 20 µM
- IC50 (SJRH30): 20 µM
- IC50 (B16-F1): 20 µM
- IC50 (CHL-1): 15.2 µM
- IC50 (T84): 20 µM
- IC50 [24]: 20 µM
- IC50 [25]: 20 µM
- IC50 (CAKI-2): 20 µM
- IC50 (CAL-54): 20 µM
- IC50 [26]: 20 µM
- IC50 (TK-10): 20 µM
- IC50 [27]: 20 µM
- IC50 [28]: 20 µM
- IC50 [29]: 20 µM
- IC50 (SNU-398): 20 µM
- IC50 (SNU-423): 20 µM
- IC50 (MKN-74): 20 µM
- IC50 (COR-L47): 20 µM
- IC50 (DMS-273): 20 µM
- IC50 (BCPAP): 20 µM
- IC50 [30]: 20 µM
- IC50 (UMUC3): 20 µM
- IC50 (HT-1080): 20 µM
- IC50 [31]: 20 µM
- IC50 (HEC-1-A): 20 µM
- IC50 [32]: 20 µM
- IC50 (MES-SA): 7.08 µM

Compound: C/C=C/Cn1cc(-c2ccc(C(=O)N3CCOCC3)cc2)c2cc[nH]c2c1=O
- IC50 (NALM-6): 18.8 µM
- IC50 [1]: 18.3 µM
- IC50 [2]: 20 µM
- IC50 (OCI-AML2): 8.38 µM
- IC50 (A 172): 20 µM
- IC50 (SCLC-21H): 20 µM
- IC50 [3]: 20 µM
- IC50 (MPC-11): 10.7 µM
- IC50 (Rec1): 20 µM
- IC50 [4]: 20 µM
- IC50 (SIMA): 20 µM
- IC50 (HN): 20 µM
- IC50 [5]: 20 µM
- IC50 [6]: 20 µM
- IC50 [7]: 20 µM
- IC50 [8]: 20 µM
- IC50 (BT-474): 20 µM
- IC50 [9]: 20 µM
- IC50 [10]: 20 µM
- IC50 [11]: 20 µM
- IC50 (OVCAR-5): 20 µM
- IC50 (MCF-10A [12]): 14.2 µM
- IC50 (MCF-10A [13]): 20 µM
- IC50 (SUM149PT): 20 µM
- IC50 (TYK-nu): 20 µM
- IC50 (CAPAN-1): 20 µM
- IC50 [14]: 20 µM
- IC50 [15]: 20 µM
- IC50 [16]: 20 µM
- IC50 [17]: 20 µM
- IC50 [18]: 20 µM
- IC50 (PANC-03-27): 20 µM
- IC50 [19]: 12.2 µM
- IC50 [20]: 20 µM
- IC50 [21]: 20 µM
- IC50 [22]: 20 µM
- IC50 [23]: 20 µM
- IC50 (SJRH30): 20 µM
- IC50 (B16-F1): 13.5 µM
- IC50 (CHL-1): 15.2 µM
- IC50 (T84): 20 µM
- IC50 [24]: 20 µM
- IC50 [25]: 20 µM
- IC50 (CAKI-2): 20 µM
- IC50 (CAL-54): 20 µM
- IC50 [26]: 20 µM
- IC50 (TK-10): 20 µM
- IC50 [27]: 20 µM
- IC50 [28]: 20 µM
- IC50 [29]: 20 µM
- IC50 (SNU-398): 20 µM
- IC50 (SNU-423): 20 µM
- IC50 (MKN-74): 20 µM
- IC50 (COR-L47): 20 µM
- IC50 (DMS-273): 20 µM
- IC50 (BCPAP): 20 µM
- IC50 [30]: 20 µM
- IC50 (UMUC3): 20 µM
- IC50 (HT-1080): 20 µM
- IC50 [31]: 20 µM
- IC50 (HEC-1-A): 20 µM
- IC50 [32]: 20 µM
- IC50 (MES-SA): 20 µM
